Consider two compounds from patent publication US20030096823A1, “Method for the treatment of cardiotoxicity induced by antitumor compounds” (priority 2001, published 2003).

For the data set, the system named is heart (myocardial damage) of Crl:CD-1 (ICR) BR female mice. The data set can be described thus: cardiotoxicity in the Bertazzoli mouse model. Type of data set: in vivo. Particulars: intravenous, expected.

Protocol: Animals/group: 15 Crl:CD-1 (ICR) BR female mice, about 4 weeks old at the start of treatment, will be used.
Test and control articles and formulations: Epi and rmuAb will be dissolved in normal saline (saline) and distilled water for injection (water), respectively, at the requested concentrations; dex will be dissolved in M/6 sodium lactate at the requested concentration; control animals will receive the above vehicles alone.
Dose levels and justification: The doses of 5 mg/kg/day for epi and 50 mg/kg/day for dex (epi/dex ratio: 1:10) are selected on the basis of the results of previous cardiotoxicity studies in mice. […] The two doses of rmuAb will be decided on the basis of the results of two preliminary studies performed to assess its toxicity and cardiotoxic potential in the above strain of mice.
Administration route: intravenous, via a tail vein, for epi, dex and rmuAb.
Study duration and treatment schedule: Twice a week at weeks 1, 2, 5, 6, and 7 for epi and dex; twice a week for 7 weeks for rmuAb. Dex will be given 30 minutes before epi. […]
Clinical observations and post-mortem examinations: Mortality, clinical signs and general condition will be recorded daily and body weight weekly. […] Cardiomyopathy will be evaluated by scoring the severity and extent of the myocardial lesions according to a qualitative/quantitative score. […]

As for `COc1cccc2c1C(=O)c1c(O)c3c(c(O)c1C2=O)C[C@@](O)(C(=O)CO)C[C@@H]3O[C@H]1C[C@H](N)[C@@H](O)[C@H](C)O1` [epi, epirubicin], the cardiotoxicity induced entry (5 mg/kg/day epi) is recorded as “moderate/marked cardiotoxicity”.

Turning to `C[C@@H](CN1CC(=O)NC(=O)C1)N1CC(=O)NC(=O)C1` [dex, dexrazoxane], under “50 mg/kg/day dex, 30 minutes before epi”, the “effect on myocardial damage produced by epi” value is “significantly reduce the myocardial damage”.
